Patent publication US10974081B2, “Treatment and prevention of sleep disorders” (Purdue Pharma L.P., priority 2016, dated 2021)
Values after ≈ are worked out from the molar mass of the structure shown. Read-outs that look alike come from different tables or passages of the source.

Columns and labels:
[1] = In vivo renal clearance in humans; design: species or system human; settings: for CL renal: male, human, urine
Description: Four healthy male subjects were administered each dose. Table 25 below provides the results in the form of the mean renal clearance, mean total amount excreted unchanged ad Compound (1D), and mean percentage dose excreted unchanged.

rats [2] = tested on: rats
rats [3] = assay: EEG/EMG sleep-wake analysis, single administration compared to zolpidem; assay type: in vivo, rat
rat liver microsomes = assay: In vitro metabolic stability, rat liver microsomes; assay type: in vitro ADME; settings: 2 μM, % remaining after 30 minutes at 37° C.
Description: The comparative in vitro metabolic stabilities of Compounds (1F), […], and W-212393 were determined upon exposure to human liver microsomes or rat liver microsomes according to a procedure disclosed in, e.g., Example 14 of U.S. Pat. No. 9,290,488, which is hereby incorporated by reference in its entirety. Liver microsomes from Crj;CD rats or humans were incubated with 2 μM of each tested compound; thereafter, the supernatant was analyzed by HPLC-MS for the concentration of the tested compound present. Human liver microsomes, pooled, 20 mg/mL, were obtained from […] #H0610). […] Alternatively and if desired, rat liver microsomes can be obtained commercially from, e.g., XenoTech (Sprague-Dawley rat liver microsomes, pooled, 20 mg/mL, cat #R1000). β-NADPH (β-nicotinamide adenine dinucleotide 2'-phosphate reduced tetrasodium salt hydrate) was obtained from Oriental Yeast Co., Ltd. (Tokyo, Japan). Each tested compound, present at an initial concentration of 2 μM, was incubated at 37° C. in the presence of 0.5 mg/mL of either human microsomes or rat microsomes in suspension in 50 mM Tris-HCl buffer (7.4 pH), 150 mM KCl, 10 mM MgCl2, and 1 mM β-NADPH. Incubation was initiated upon the addition of a 100-fold concentrated solution of the tested compound to one of the microsome preparations. Incubation was terminated by addition of a two-fold volume of a 1/1 mixture of acetonitrile/methanol after either 0 minutes or 30 minutes of incubation at 37° C. Thereafter, proteins and other macromolecules from the microsome preparation were removed by centrifugation. All incubations were conducted in duplicate. […] The HPLC system consisted of a Waters 2795 separations module (Waters Corp., Milford, Mass.) equipped with an inline degasser, temperature controlled auto-sampler, and column oven. The analytical column was a Waters […], 2.1 mm×20 mm column. The mass analyzer was a Waters ZQ, single quadrupole mass spectrometer equipped with an electrospray ionization source operating in the positive ionization mode and utilizing a stainless steel spray capillary. […]

[4] = Free unbound compound fraction, equilibrium dialysis of rat serum; assay type: in vitro ADME; settings: male, Crl:CD (SD), rat, rat serum; 2 μg/mL, 24 hours dialysis at 37° C.
Description: The extent of in vitro binding of Compound (1F) or W-212393 to rat serum was determined as an assessment of the availability of free unbound compound for modulating receptor activity according to a procedure disclosed in, e.g., Example 15 of U.S. Pat. No. 9,290,488, which is hereby incorporated by reference in its entirety. Serum from rats containing a tested compound in one chamber of a dialysis cell was dialyzed with phosphate buffered saline (“PBS”) in the other chamber; thereafter, the supernatant from each chamber was analyzed for the concentration of the tested compound present. […] The final concentration of each tested compound in the serum sample was adjusted to 2 μg/mL by adding an appropriate volume of PBS. A cell suitable for equilibrium dialysis was used in the determinations. A SPECTRA/POR dialysis membrane (with molecular mass cutoff of 12,000-14,000 Da, Spectrum Laboratories, Inc., Rancho Dominguez, Calif.) separated the dialysis cell into two chambers. A 500 μL aliquot of the serum sample containing a tested compound was applied to one chamber (serum chamber) of the dialysis cell. A 500 μL aliquot of PBS was applied to the other chamber (PBS chamber) of the dialysis cell. The dialysis study was conducted in duplicate for each tested compound. After 24 hours of equilibrium dialysis at 37° C., 30 μL of liquid from the serum chamber of the dialysis cell was collected and to this was added 270 μL of fresh PBS (this combination was designated Sample “A”). Then, 270 μL of liquid from the PBS chamber of the dialysis cell was collected and to this was added 30 μL of control rat serum (i.e., rat serum never exposed to any test compound, this combination was designated Sample “B”). […] Each supernatant was analyzed by LC-MS-MS. […] Thereafter, the percentage of free unbound tested compound was calculated from the ratio of the tested compound amount determined from Sample B divided by the sum of the tested compound amounts determined from Sample A and Sample B.

[5] = Aqueous solubility at pH about 6.8; assay type: physicochemical; settings: 25 °C, pH 6.8, aqueous buffer, kinetic from dmso stock, single value, procedure not stated; read-out: Solubility at pH 6.8

Compound: O=C(O)c1nc2ccccc2n([C@H]2C[C@H]3CCC[C@@H](C2)N3C2CC3CCCC(C3)C2)c1=O (stereo partly shown) [Compound (1D)]
- absorption from the gastrointestinal tract ([1]; 3 mg oral dose, aqueous suspension): essentially completely absorbed
- Mean % Dose Excreted Unchanged ([1]; 3.0 mg single oral dose): 89%
- Mean Total Amount Excreted Unchanged ([1]; 3.0 mg single oral dose): 2.66 mg
- Mean % Dose Excreted Unchanged ([1]; 10 mg single oral dose): 70%
- Mean Total Amount Excreted Unchanged ([1]; 10 mg single oral dose): 6.95 mg
- Mean % Dose Excreted Unchanged ([1]; 30 mg single oral dose): 28%
- Mean Total Amount Excreted Unchanged ([1]; 30 mg single oral dose): 8.37 mg
- renal elimination mechanism ([1]; in addition to glomerular filtration): active renal tubular secretion
- CL renal ([1]; 3.0 mg single oral dose): 275 mL/min
- CL renal ([1]; 10 mg single oral dose): 266 mL/min
- CL renal ([1]; 30 mg single oral dose): 270 mL/min
- excretion in human urine ([1]; single oral doses 3, 10, 30 mg): excreted largely unchanged
- overall sleep effect (rats [2]; 30 mg/kg/day oral): significant sleep-enhancing effects
- tachyphylaxis over the seven day period (rats [2]; 30 mg/kg/day oral for 7 days): minimal tachyphylaxis
- percentage of time spent in wakefulness (rats [2]; 30 mg/kg/day oral, Day 1, 1 hour block at 4 hours after dosing (FIG. 5A)): about 52%
- percentage of time spent in NREM sleep (rats [2]; 30 mg/kg/day oral, Day 1, 1 hour block at 4 hours after dosing (FIG. 5C)): about 41%
- percentage of time spent in NREM sleep (rats [2]; 30 mg/kg/day oral, Day 1, 1 hour block at 5 hours after dosing (FIG. 5C)): ~54%
- percentage of time spent in REM sleep (rats [2]; 30 mg/kg/day oral, Day 1, 1 hour block at 7 hours after dosing (FIG. 5B)): about 2.5%
- total amount of wakefulness (rats [2]; 30 mg/kg/day oral, Day 1, 3 hour block, 3 to 6 hours after dosing (FIG. 6A)): about 47%
- total amount of NREM sleep (rats [2]; 30 mg/kg/day oral, Day 1, 3 hour block, 3 to 6 hours after dosing (FIG. 6C)): about 46%
- effect on percentage of time spent in REM sleep (rats [2]; 30 mg/kg/day oral, Day 1, 3 hour blocks (FIG. 6B)): no significant effects
- effect on percentage of time spent in REM sleep (rats [2]; 30 mg/kg/day oral, Day 4 (FIG. 7B, 8B)): no significant effects
- total amount of wakefulness (rats [2]; 30 mg/kg/day oral, Day 4, 3 to 6 hours after dosing (FIG. 8A)): about 55%
- total amount of NREM sleep (rats [2]; 30 mg/kg/day oral, Day 4, 3 to 6 hours after dosing (FIG. 8C)): about 41%
- percentage of time spent in NREM sleep (rats [2]; 30 mg/kg/day oral, Day 4, 1 hour block at 4 hours after dosing (FIG. 7C)): about 42%
- effect on percentage of time spent in REM sleep (rats [2]; 30 mg/kg/day oral, Day 7 (FIG. 9B, 10B)): no significant effects
- percentage of time spent in wakefulness versus vehicle (rats [2]; 30 mg/kg/day oral, Day 7, lights-out period (FIG. 9A)): decreasing tendency
- percentage of time spent in NREM sleep versus vehicle (rats [2]; 30 mg/kg/day oral, Day 7, lights-out period (FIG. 9C)): increased tendency
- effect on time spent in REM sleep (rats [2]; Day 8 (no dosing) after 30 mg/kg/day for 7 days (FIG. 11B)): no effect
- percentage of time spent in wakefulness versus vehicle (rats [2]; Day 8 (no dosing) after 30 mg/kg/day for 7 days, at 27, 35, and 46 hours (FIG. 11A)): significantly increased
- percentage of time spent in NREM sleep versus vehicle (rats [2]; Day 8 (no dosing) after 30 mg/kg/day for 7 days, at 27, 35, and 46 hours (FIG. 11C)): significantly decreased
- effect on percentage of time spent in REM sleep (rats [3]; 10 mg/kg oral (FIG. 13B)): no significant effects
- percentage of time spent in wakefulness versus vehicle (rats [3]; 10 mg/kg oral, 1 hour blocks at 2, 5, and 8 hours after dosing (FIG. 13A)): lower
- percentage amounts of wakefulness, REM sleep, and NREM sleep (rats [3]; 10 mg/kg oral, 3 hour blocks (FIGS. 14A-14C)): no significant changes
- percentage of time spent in NREM sleep versus vehicle (rats [3]; 10 mg/kg oral, at 2, 5, and 8 hours after dosing (FIG. 13C)): higher
- percentage of time spent in wakefulness versus vehicle (rats [3]; 10 mg/kg oral, at 6 and 15 hours after dosing (FIG. 13A)): significantly increased
- percentage of time spent in NREM sleep versus vehicle (rats [3]; 10 mg/kg oral, at 6 and 15 hours after dosing (FIG. 13C)): significantly decreased
- effect on percentage of time spent in REM sleep (rats [3]; 100 mg/kg oral (FIG. 15B, 16B)): no significant effects
- percentage amount of NREM sleep versus vehicle (rats [3]; 100 mg/kg oral, 3 hour blocks 0-3, 3-6, 6-9, and 15-18 hours (FIG. 16C)): significant decreases
- percentage amount of wakefulness versus vehicle (rats [3]; 100 mg/kg oral, 3 hour blocks 0-3, 3-6, and 15-18 hours (FIG. 16A)): significant increases
- percentage of time spent in NREM sleep versus vehicle (rats [3]; 100 mg/kg oral, at 3, 4, 5, 7, 17 and 18 hours after dosing (FIG. 15C)): significantly increased
- percentage of time spent in wakefulness versus vehicle (rats [3]; 100 mg/kg oral, at 3, 5 and 17 hours after dosing (FIG. 15A)): significantly decreased
- overall sleep effect (rats [3]; single 10 mg/kg oral dose): minor sleep-enhancing effects
- overall sleep effect (rats [3]; single 100 mg/kg oral dose): significant sleep-enhancing effects

Compound: CNC(=O)Cn1c(=O)n(C2CCN([C@@H]3Cc4cccc5cccc3c45)CC2)c2ccccc21 [Compound W-212393]
- Rat Metabolic Stability (%) (rat liver microsomes): 58.4%
- fraction unbound at 24 h, 2 μg/mL [4]: < 0.001
- solubility at 16 h [5]: 42 µM (≈ 18.5 µg/mL)
- brain penetration relative to average of Compound (1C) (0.5/0.033): at least 15 times
- brain penetration relative to maximum value of Compound (1C) (0.5/0.040): at least 13 times
